# Test results published in ChEMBL document CHEMBL5303573, “Mapping human microbiome drug metabolism by gut bacteria and their genes” (Nature, 2019).
# Tests used:
# [1] = The drug is tested on Collinsella intestinalis strain: DSM13280 for biotransformation. The drug concentrations were measured before and after a 12-h incubation by liquid-chromatography-coupled mass spectrometry (LC–MS); conditions: 2 µM
# [2] = The drug is tested on Coprococcus comes strain: ATCC27758 for biotransformation. The drug concentrations were measured before and after a 12-h incubation by liquid-chromatography-coupled mass spectrometry (LC–MS); type: ADME; design: dose 2 uM, timepoint 0 vs 12 hours; conditions: 2 µM
# [3] = The drug is tested on Bacteroides pectinophilus strain: ATCC43243 for biotransformation. The drug concentrations were measured before and after a 12-h incubation by liquid-chromatography-coupled mass spectrometry (LC–MS); conditions: 2 µM
# [4] = The drug is tested on Bacteroides finegoldii strain: DSM17565 for biotransformation. The drug concentrations were measured before and after a 12-h incubation by liquid-chromatography-coupled mass spectrometry (LC–MS); conditions: 2 µM
# [5] = The drug is tested on Eubacterium ventriosum strain: ATCC27560 for biotransformation. The drug concentrations were measured before and after a 12-h incubation by liquid-chromatography-coupled mass spectrometry (LC–MS); type: ADME; design: dose 2 uM, timepoint 0 vs 12 hours; conditions: 2 µM
# [6] = The drug is tested on Bacteroides coprophilus strain: DSM18228 for biotransformation. The drug concentrations were measured before and after a 12-h incubation by liquid-chromatography-coupled mass spectrometry (LC–MS); conditions: 2 µM
# [7] = The drug is tested on Ruminococcus lactaris strain: ATCC29176 for biotransformation. The drug concentrations were measured before and after a 12-h incubation by liquid-chromatography-coupled mass spectrometry (LC–MS); conditions: 2 µM
# [8] = The drug is tested on Bacteroides caccae strain: ATCC43185 for biotransformation. The drug concentrations were measured before and after a 12-h incubation by liquid-chromatography-coupled mass spectrometry (LC–MS); conditions: 2 µM
# [9] = enterocloster bolteae, 12 h, 2 µM
# Description: The drug is tested on Clostridium bolteae strain: ATCCBAA-613 for biotransformation. The drug concentrations were measured before and after a 12-h incubation by liquid-chromatography-coupled mass spectrometry (LC–MS)
# [10] = The drug is tested on Bacteroides sp. WH2 strain: WH2 for biotransformation. The drug concentrations were measured before and after a 12-h incubation by liquid-chromatography-coupled mass spectrometry (LC–MS); conditions: bacteroides sp. wh2, 12 h, 2 µM
# [11] = The drug is tested on Subdoligranulum variabile strain: DSM15176 for biotransformation. The drug concentrations were measured before and after a 12-h incubation by liquid-chromatography-coupled mass spectrometry (LC–MS); conditions: 2 µM
# [12] = The drug is tested on Eggerthella lenta strain: ATCC25559 for biotransformation. The drug concentrations were measured before and after a 12-h incubation by liquid-chromatography-coupled mass spectrometry (LC–MS); conditions: 2 µM
# [13] = The drug is tested on Odoribacter splanchnicus strain: fecal isolate for biotransformation. The drug concentrations were measured before and after a 12-h incubation by liquid-chromatography-coupled mass spectrometry (LC–MS); conditions: 2 µM
# [14] = parabacteroides distasonis, 12 h, 2 µM
# Description: The drug is tested on Parabacteroides distasonis strain: ATCC8503 for biotransformation. The drug concentrations were measured before and after a 12-h incubation by liquid-chromatography-coupled mass spectrometry (LC–MS)
# [15] = The drug is tested on Clostridium asparagiforme strain: DSM15981 for biotransformation. The drug concentrations were measured before and after a 12-h incubation by liquid-chromatography-coupled mass spectrometry (LC–MS); type: ADME; design: dose 2 uM, timepoint 0 vs 12 hours; conditions: enterocloster asparagiformis, 2 µM
# [16] = bacteroides fragilis, 12 h, 2 µM
# Description: The drug is tested on Bacteroides fragilis strain: 3397 (T10) for biotransformation. The drug concentrations were measured before and after a 12-h incubation by liquid-chromatography-coupled mass spectrometry (LC–MS)
# [17] = bacteroides intestinalis, 12 h, 2 µM
# Description: The drug is tested on Bacteroides intestinalis strain: DSM17393 for biotransformation. The drug concentrations were measured before and after a 12-h incubation by liquid-chromatography-coupled mass spectrometry (LC–MS)
# [18] = The drug is tested on Clostridium scindens strain: ATCC35704 for biotransformation. The drug concentrations were measured before and after a 12-h incubation by liquid-chromatography-coupled mass spectrometry (LC–MS); conditions: 2 µM
# [19] = The drug is tested on Bifidobacterium longum subsp. Infantis strain: CCUG52486 for biotransformation. The drug concentrations were measured before and after a 12-h incubation by liquid-chromatography-coupled mass spectrometry (LC–MS); conditions: 2 µM
# [20] = The drug is tested on Escherichia coli strain: BW25113 for biotransformation. The drug concentrations were measured before and after a 12-h incubation by liquid-chromatography-coupled mass spectrometry (LC–MS); conditions: 2 µM
# [21] = The drug is tested on Anaerotruncus colihominis strain: DSM17241 for biotransformation. The drug concentrations were measured before and after a 12-h incubation by liquid-chromatography-coupled mass spectrometry (LC–MS); conditions: 2 µM
# [22] = The drug is tested on Eubacterium hallii strain: DSM3353 for biotransformation. The drug concentrations were measured before and after a 12-h incubation by liquid-chromatography-coupled mass spectrometry (LC–MS); conditions: anaerobutyricum hallii, 2 µM
# [23] = The drug is tested on Clostridium symbiosum strain: ATCC14940 for biotransformation. The drug concentrations were measured before and after a 12-h incubation by liquid-chromatography-coupled mass spectrometry (LC–MS); conditions: 2 µM
# [24] = The drug is tested on Clostridium ramosum strain: DSM1402 for biotransformation. The drug concentrations were measured before and after a 12-h incubation by liquid-chromatography-coupled mass spectrometry (LC–MS); conditions: thomasclavelia ramosa, 2 µM
# [25] = segatella copri, 12 h, 2 µM
# Description: The drug is tested on Prevotella copri strain: DSM18205 for biotransformation. The drug concentrations were measured before and after a 12-h incubation by liquid-chromatography-coupled mass spectrometry (LC–MS)
# [26] = The drug is tested on Bacteroides uniformis strain: ATCC8492 for biotransformation. The drug concentrations were measured before and after a 12-h incubation by liquid-chromatography-coupled mass spectrometry (LC–MS); conditions: 2 µM
# [27] = bacteroides fragilis, 12 h, 2 µM; remark: listed apart in the source
# Description: The drug is tested on Bacteroides fragilis strain: NCTC 9343 for biotransformation. The drug concentrations were measured before and after a 12-h incubation by liquid-chromatography-coupled mass spectrometry (LC–MS)
# [28] = The drug is tested on Blautia luti strain: DSM14534 for biotransformation. The drug concentrations were measured before and after a 12-h incubation by liquid-chromatography-coupled mass spectrometry (LC–MS); type: ADME; design: dose 2 uM, timepoint 0 vs 12 hours; conditions: 2 µM
# [29] = anaerostipes sp., 12 h, 2 µM
# Description: The drug is tested on Anaerostipes sp. strain: fecal isolate for biotransformation. The drug concentrations were measured before and after a 12-h incubation by liquid-chromatography-coupled mass spectrometry (LC–MS)
# [30] = parabacteroides johnsonii, 12 h, 2 µM
# Description: The drug is tested on Parabacteroides johnsonii strain: DSM18315 for biotransformation. The drug concentrations were measured before and after a 12-h incubation by liquid-chromatography-coupled mass spectrometry (LC–MS)
# [31] = The drug is tested on Ruminococcus torques strain: ATCC27756 for biotransformation. The drug concentrations were measured before and after a 12-h incubation by liquid-chromatography-coupled mass spectrometry (LC–MS); type: ADME; design: dose 2 uM, timepoint 0 vs 12 hours; conditions: 2 µM
# [32] = bacteroides stercoris, 12 h, 2 µM
# Description: The drug is tested on Bacteroides stercoris strain: ATCC43183 for biotransformation. The drug concentrations were measured before and after a 12-h incubation by liquid-chromatography-coupled mass spectrometry (LC–MS)
# [33] = The drug is tested on Ruminococcus gnavus strain: ATCC29149 for biotransformation. The drug concentrations were measured before and after a 12-h incubation by liquid-chromatography-coupled mass spectrometry (LC–MS); conditions: mediterraneibacter gnavus, 2 µM
# [34] = bacteroides thetaiotaomicron, 12 h, 2 µM
# Description: The drug is tested on Bacteroides thetaiotaomicron strain: 3731 for biotransformation. The drug concentrations were measured before and after a 12-h incubation by liquid-chromatography-coupled mass spectrometry (LC–MS)
# [35] = The drug is tested on Bacteroides dorei strain: DSM17855 for biotransformation. The drug concentrations were measured before and after a 12-h incubation by liquid-chromatography-coupled mass spectrometry (LC–MS); conditions: phocaeicola dorei, 2 µM
# [36] = limosilactobacillus reuteri cf48-3a, 12 h, 2 µM
# Description: The drug is tested on Lactobacillus reuteri CF48-3A strain: BEI HM-102 for biotransformation. The drug concentrations were measured before and after a 12-h incubation by liquid-chromatography-coupled mass spectrometry (LC–MS)
# [37] = bacteroides thetaiotaomicron, 12 h, 2 µM; remark: listed apart in the source
# Description: The drug is tested on Bacteroides thetaiotaomicron strain: VPI-5482 for biotransformation. The drug concentrations were measured before and after a 12-h incubation by liquid-chromatography-coupled mass spectrometry (LC–MS)
# [38] = bacteroides eggerthii, 12 h, 2 µM
# Description: The drug is tested on Bacteroides eggerthii strain: DSM20697 for biotransformation. The drug concentrations were measured before and after a 12-h incubation by liquid-chromatography-coupled mass spectrometry (LC–MS)
# [39] = The drug is tested on Bacteroides vulgatus strain: ATCC8482 for biotransformation. The drug concentrations were measured before and after a 12-h incubation by liquid-chromatography-coupled mass spectrometry (LC–MS); conditions: phocaeicola vulgatus, 2 µM
# [40] = The drug is tested on Bacteroides ovatus strain: ATCC8483 for biotransformation. The drug concentrations were measured before and after a 12-h incubation by liquid-chromatography-coupled mass spectrometry (LC–MS); conditions: 2 µM
# [41] = The drug is tested on Clostridium sporogenes strain: ATCC15579 for biotransformation. The drug concentrations were measured before and after a 12-h incubation by liquid-chromatography-coupled mass spectrometry (LC–MS); conditions: 2 µM
# [42] = The drug is tested on Eubacterium rectale strain: ATCC33656 for biotransformation. The drug concentrations were measured before and after a 12-h incubation by liquid-chromatography-coupled mass spectrometry (LC–MS); conditions: agathobacter rectalis, 2 µM
# [43] = The drug is tested on Providencia rettgeri strain: DSM1131 for biotransformation. The drug concentrations were measured before and after a 12-h incubation by liquid-chromatography-coupled mass spectrometry (LC–MS); type: ADME; design: dose 2 uM, timepoint 0 vs 12 hours; conditions: 2 µM
# [44] = The drug is tested on Alistipes indistinctus strain: DSM22520 for biotransformation. The drug concentrations were measured before and after a 12-h incubation by liquid-chromatography-coupled mass spectrometry (LC–MS); conditions: 2 µM
# [45] = bifidobacterium adolescentis, 12 h, 2 µM
# Description: The drug is tested on Bifidobacterium adolescentis strain: ATCC 15703 for biotransformation. The drug concentrations were measured before and after a 12-h incubation by liquid-chromatography-coupled mass spectrometry (LC–MS)
# [46] = The drug is tested on Bifidobacterium breve strain: DSM20213 for biotransformation. The drug concentrations were measured before and after a 12-h incubation by liquid-chromatography-coupled mass spectrometry (LC–MS); conditions: 2 µM
# [47] = roseburia intestinalis, 12 h, 2 µM
# Description: The drug is tested on Roseburia intestinalis strain: L1-82 for biotransformation. The drug concentrations were measured before and after a 12-h incubation by liquid-chromatography-coupled mass spectrometry (LC–MS)
# [48] = The drug is tested on Parabacteroides merdae strain: ATCC43184 for biotransformation. The drug concentrations were measured before and after a 12-h incubation by liquid-chromatography-coupled mass spectrometry (LC–MS); conditions: 2 µM
# [49] = The drug is tested on Bacteroides xylanisolvens strain: DSM18836 for biotransformation. The drug concentrations were measured before and after a 12-h incubation by liquid-chromatography-coupled mass spectrometry (LC–MS); conditions: 2 µM
# [50] = The drug is tested on Bacteroides fragilis strain: HMW615 for biotransformation. The drug concentrations were measured before and after a 12-h incubation by liquid-chromatography-coupled mass spectrometry (LC–MS); conditions: 2 µM
# [51] = The drug is tested on Anaerococcus hydrogenalis strain: DSM7454 for biotransformation. The drug concentrations were measured before and after a 12-h incubation by liquid-chromatography-coupled mass spectrometry (LC–MS); conditions: 2 µM
# [52] = bacteroides fragilis, 12 h, 2 µM; remark: listed apart in the source
# Description: The drug is tested on Bacteroides fragilis strain: DS-208 for biotransformation. The drug concentrations were measured before and after a 12-h incubation by liquid-chromatography-coupled mass spectrometry (LC–MS)
# [53] = The drug is tested on Collinsella aerofaciens strain: ATCC25986 for biotransformation. The drug concentrations were measured before and after a 12-h incubation by liquid-chromatography-coupled mass spectrometry (LC–MS); conditions: 2 µM
# [54] = The drug is tested on Bifidobacterium ruminantium strain: fecal isolate for biotransformation. The drug concentrations were measured before and after a 12-h incubation by liquid-chromatography-coupled mass spectrometry (LC–MS); conditions: 2 µM
# [55] = akkermansia muciniphila, 12 h, 2 µM
# Description: The drug is tested on Akkermansia muciniphila strain: ATCC BAA-835 for biotransformation. The drug concentrations were measured before and after a 12-h incubation by liquid-chromatography-coupled mass spectrometry (LC–MS)
compound,measurement,setting,value
CC#CCn1c(N2CCC[C@@H](N)C2)nc2c1c(=O)n(Cc1nc(C)c3ccccc3n1)c(=O)n2C [LINAGLIPTIN],Bacterial Biotransformation,[1],Compound NOT metabolized
same,Bacterial Biotransformation,[2],Compound NOT metabolized
same,Bacterial Biotransformation,[3],Compound NOT metabolized
same,Bacterial Biotransformation,[4],Compound metabolized
same,Bacterial Biotransformation,[5],Compound NOT metabolized
same,Bacterial Biotransformation,[6],Compound metabolized
same,Bacterial Biotransformation,[7],Compound NOT metabolized
same,Bacterial Biotransformation,[8],Compound metabolized
same,Bacterial Biotransformation,[9],Compound NOT metabolized
same,Bacterial Biotransformation,[10],Compound NOT metabolized
same,Bacterial Biotransformation,[11],Compound NOT metabolized
same,Bacterial Biotransformation,[12],Compound NOT metabolized
same,Bacterial Biotransformation,[13],Compound metabolized
same,Bacterial Biotransformation,[14],Compound metabolized
same,Bacterial Biotransformation,[15],Compound NOT metabolized
same,Bacterial Biotransformation,[16],Compound metabolized
same,Bacterial Biotransformation,[17],Compound metabolized
same,Bacterial Biotransformation,[18],Compound NOT metabolized
same,Bacterial Biotransformation,[19],Compound NOT metabolized
same,Bacterial Biotransformation,[20],Compound NOT metabolized
same,Bacterial Biotransformation,[21],Compound NOT metabolized
same,Bacterial Biotransformation,[22],Compound NOT metabolized
same,Bacterial Biotransformation,[23],Compound NOT metabolized
same,Bacterial Biotransformation,[24],Compound NOT metabolized
same,Bacterial Biotransformation,[25],Compound metabolized
same,Bacterial Biotransformation,[26],Compound metabolized
same,Bacterial Biotransformation,[27],Compound metabolized
same,Bacterial Biotransformation,[28],Compound NOT metabolized
same,Bacterial Biotransformation,[29],Compound NOT metabolized
same,Bacterial Biotransformation,[30],Compound metabolized
same,Bacterial Biotransformation,[31],Compound NOT metabolized
same,Bacterial Biotransformation,[32],Compound metabolized
same,Bacterial Biotransformation,[33],Compound NOT metabolized
same,Bacterial Biotransformation,[34],Compound metabolized
same,Bacterial Biotransformation,[35],Compound metabolized
same,Bacterial Biotransformation,[36],Compound NOT metabolized
same,Bacterial Biotransformation,[37],Compound metabolized
COc1cc(NC(C)CCCN)c2ncccc2c1.O=P(O)(O)O.O=P(O)(O)O (stereo not given) [PRIMAQUINE PHOSPHATE],Bacterial Biotransformation,[1],Compound metabolized
same,Bacterial Biotransformation,[2],Compound NOT metabolized
same,Bacterial Biotransformation,[38],Compound NOT metabolized
same,Bacterial Biotransformation,[3],Compound metabolized
same,Bacterial Biotransformation,[4],Compound metabolized
same,Bacterial Biotransformation,[39],Compound NOT metabolized
same,Bacterial Biotransformation,[6],Compound NOT metabolized
same,Bacterial Biotransformation,[40],Compound metabolized
same,Bacterial Biotransformation,[8],Compound NOT metabolized
same,Bacterial Biotransformation,[9],Compound metabolized
same,Bacterial Biotransformation,[10],Compound NOT metabolized
same,Bacterial Biotransformation,[11],Compound NOT metabolized
same,Bacterial Biotransformation,[12],Compound NOT metabolized
same,Bacterial Biotransformation,[41],Compound NOT metabolized
same,Bacterial Biotransformation,[42],Compound NOT metabolized
same,Bacterial Biotransformation,[14],Compound metabolized
same,Bacterial Biotransformation,[16],Compound metabolized
same,Bacterial Biotransformation,[43],Compound NOT metabolized
same,Bacterial Biotransformation,[44],Compound NOT metabolized
same,Bacterial Biotransformation,[19],Compound metabolized
same,Bacterial Biotransformation,[20],Compound metabolized
same,Bacterial Biotransformation,[22],Compound NOT metabolized
same,Bacterial Biotransformation,[23],Compound metabolized
same,Bacterial Biotransformation,[45],Compound NOT metabolized
same,Bacterial Biotransformation,[46],Compound metabolized
same,Bacterial Biotransformation,[25],Compound metabolized
same,Bacterial Biotransformation,[26],Compound metabolized
same,Bacterial Biotransformation,[27],Compound NOT metabolized
same,Bacterial Biotransformation,[29],Compound NOT metabolized
same,Bacterial Biotransformation,[47],Compound NOT metabolized
same,Bacterial Biotransformation,[48],Compound NOT metabolized
same,Bacterial Biotransformation,[49],Compound metabolized
same,Bacterial Biotransformation,[30],Compound metabolized
same,Bacterial Biotransformation,[50],Compound NOT metabolized
same,Bacterial Biotransformation,[31],Compound NOT metabolized
same,Bacterial Biotransformation,[32],Compound NOT metabolized
same,Bacterial Biotransformation,[51],Compound metabolized
same,Bacterial Biotransformation,[33],Compound NOT metabolized
same,Bacterial Biotransformation,[52],Compound NOT metabolized
same,Bacterial Biotransformation,[53],Compound metabolized
same,Bacterial Biotransformation,[54],Compound metabolized
same,Bacterial Biotransformation,[36],Compound NOT metabolized
same,Bacterial Biotransformation,[55],Compound NOT metabolized
